Assay results published in US6727237B2, “Inhibitors of bacterial NAD synthetase” (priority 1998, dated 2004).
Where two headings read alike, the source gives them in different places.

Experiments:
[1] = test system: K562 human myeloid cell line; assay: In vitro toxicity in human cells, propidium iodide flow cytometry, minimum toxic concentration
Description: The final concentration of DMSO was less than 5%, and a DMSO control was included. The mixtures were incubated at doubling dilutions (approximately 1000 μM-10 μM range) of inhibitor for 15 hours at 37° C. At this time propidium iodide was added (1 μg/mL) and the mixture incubated at 30 min. at 4° C. The cells were washed once with medium, centrifuged, and resuspended in 2% bovine serum albumin/phosphate-buffered saline. The cell suspension was then run through a FAC Saliber flow cytometer and approximately 5000 cells were counted. The proportion of dead (stained) cells was determined, and the percent of live cells was expressed as % controls.

[2] = biological target: T1, bacterial NAD synthetase enzyme (Bacillus subtilis, UniProt P08164); assay: biochemical; assay type: biochemical; conditions: for Km: 0.2 mL Assay (microtiter plate), substrate
T1 sequence (P08164 2-272 limits assumed): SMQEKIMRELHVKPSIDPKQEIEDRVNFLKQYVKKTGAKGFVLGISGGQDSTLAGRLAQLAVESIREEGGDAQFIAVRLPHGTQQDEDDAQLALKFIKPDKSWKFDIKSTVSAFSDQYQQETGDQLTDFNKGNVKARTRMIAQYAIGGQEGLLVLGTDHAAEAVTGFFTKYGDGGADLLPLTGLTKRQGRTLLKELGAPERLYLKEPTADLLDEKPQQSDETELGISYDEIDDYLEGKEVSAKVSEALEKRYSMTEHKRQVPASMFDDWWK

[3] = test system: Staphylococcus epidermitis; assay: Bacterial growth inhibition screen in LB media (absorbance 595 nm), percent inhibition; conditions: for % Inhibition: S. epidermitis
[4] = biological target: T1, bacterial NAD synthetase enzyme; conditions: 2 mL Assay (cuvette); substrate; double reciprocal plots
B. subtilis = assay: Dose response of bacterial growth inhibition, MIC85; conditions: Bacillus subtilis, read-out: MIC85
[5] = test system: Staphylococcus epidermitis; assay: as above; conditions: Staphylococcus, read-out: MIC85
[6] = test system: Streptococcus pneumoniae WU2; assay: Standard antibiotic paper disk assay, zone of inhibition; assay type: cell-based; conditions: 250 μg on 6 or 7 mm paper disk; blood agar plate; gram +
Description: (§1) To determine initially if a compound found active in the assays, Compound 864, was also an effective inhibitor of a variety of different bacteria, a standard antibiotic assay was performed. In this assay 250 μg of Compound 864 ([…] in DMSO) was spotted on 6 or 7 mm paper disks. Each disk was placed on separate 30 ml solid-medium plates layered with bacteria Blood agar plates were used for Streptococcus, and minimal-glucose plates were used for the other microorganisms in Table 306. DMSO controls provided negative results.

[7] = test system: Escherichia coli K-12 W3110 (CGSC#4474); assay: as above; assay type: cell-based; conditions: 250 μg on 6 or 7 mm paper disk; minimal-glucose plate; gram −
Description: as §1

[8] = test system: Escherichia coli K-12 MG1655 (CGSC#6300); assay: as above; assay type: cell-based; conditions: 250 μg on 6 or 7 mm paper disk; minimal-glucose plate; gram −
Description: as §1

Bacillus subtilis A700 = assay: as above; assay type: cell-based; conditions: 250 μg on 6 or 7 mm paper disk; minimal-glucose plate; gram +
Description: as §1

[9] = test system: Salmonella typhimurium LT2 TT366; assay: as above; assay type: cell-based; conditions: 250 μg on 6 or 7 mm paper disk; minimal-glucose plate; gram −
Description: as §1

[10] = test system: Streptococcus pneumonia D39; assay: as above; assay type: cell-based, Streptococcus pneumoniae; conditions: 250 μg on 6 or 7 mm paper disk; blood agar plate; gram +
Description: as §1

[11] = substrate: Nc1ncnc2c1ncn2[C@@H]1O[C@H](COP(=O)(O)OP(=O)(O)OP(=O)(O)O)[C@@H](O)[C@H]1O; assay: purified protein, by the assay type; conditions: substrate, pH 8.5
[12] = K562 human myeloid cells, 15 hours at 37° C., propidium iodide
[13] = compound at 0.2 mM (Table 312A)
[14] = Staphylococcus, read-out: % Inhibition, S. epidermitis, concentration screened 100 uM
[15] = lead compounds (Table 318A), read-out: IC 50
[16] = other: 2 mL Assay (cuvette), double reciprocal plots

**Q.** `COC(=O)c1cc2ccccc2n1CCCCCCOC(=O)c1cccnc1` [Compound 947] was tested. Which “Minimum Toxic Dose” value [1, 12] did it give?
**A.** The value was 200 µM.

**Q.** With `Fc1cc(F)c2[nH]c(CCCC[n+]3cccc4ccccc43)cc2c1` [Compound 409] as the molecule, how does the “% Inhibition” value [2, 13] read?
**A.** Its value is 19.02%.

**Q.** What about the “% Inhibition” value ([3]; concentration screened 10 uM) of the same molecule?
**A.** The value was 2.44%.

**Q.** What about the “Minimum Toxic Dose” value [1, 12] of the same molecule?
**A.** Its value is 200 µM.

**Q.** With `COC(=O)c1cc2cc(OCc3ccccc3)ccc2n1CCCCCCOC(=O)c1cccnc1` [Compound 951] as the molecule, how does the “Minimum Toxic Dose” value [1, 12] read?
**A.** The value was 500 µM.

**Q.** For `[Mg+2]` [Mg^+2, magnesium], which Km [4] is on record?
**A.** Its Km is 2600 µM.

**Q.** What about the Vmax [4] of the same molecule?
**A.** The Vmax was 120 nM/s.

**Q.** What about the Km [2] of the same molecule?
**A.** The Km was 2900 µM.

**Q.** How did the IC50 [2] turn out when `CC(=O)c1ccc2[nH]c(CCCCCCCCOC(=O)Cc3ccc[n+](C)c3)cc2c1` [Compound 939] was run?
**A.** Its IC50 is 25 µM.

**Q.** And the inhibition at 250 µM [2]?
**A.** Its inhibition at 250 µM is 97.8%.

**Q.** What about the “Minimum Toxic Dose” value ([1]; human, 15 h) of the same molecule?
**A.** The value was 500 µM.

**Q.** For `Nc1ncnc2c1ncn2[C@@H]1O[C@H](COP(=O)(O)OP(=O)(O)OC[C@H]2O[C@@H]([n+]3cccc(C(=O)O)c3)[C@H](O)[C@@H]2O)[C@@H](O)[C@H]1O` [NaAD, nictonic acid dinucleotide, reference compound], which Km [4] is on record?
**A.** Its Km is 75 µM.

**Q.** What about the Vmax [4] of the same molecule?
**A.** The Vmax was 286 nM/s.

**Q.** What about the Km [2] of the same molecule?
**A.** The Km was 76 µM.

**Q.** How did the “Minimum Toxic Dose” value [1, 12] turn out when `O=C(O)C=Cc1cn(CCCCCCCCC[n+]2cccc(C(=O)[O-])c2)c2ccccc12` [Compound 274] was run?
**A.** Its value is 300 µM.

**Q.** For `C[N+](C)(C)c1ccc(CC(=O)OCCCCCCCCn2ccc3cc(OCc4ccccc4)ccc32)cc1` [Compound 749], which IC50 [2] is on record?
**A.** Its IC50 is 25 µM.

**Q.** What about the inhibition at 100 µM [2] of the same molecule?
**A.** Its inhibition at 100 µM is 98.2%.

**Q.** What about the inhibition of growth at 100 µM [3, 14] of the same molecule?
**A.** Its inhibition of growth at 100 µM is 98.7%.

**Q.** What about the MIC (B. subtilis) of the same molecule?
**A.** The MIC was 3 µM.

**Q.** What about the MIC [5] of the same molecule?
**A.** Its MIC is 10 µM.

**Q.** How did the IC50 [2] turn out when `COC(=O)c1cc2cc(OCc3ccccc3)ccc2n1CCCCCCCOC(=O)c1ccc[n+](C)c1` [Compound 976] was run?
**A.** Its IC50 is 20 µM.

**Q.** What about the inhibition at 100 µM [2] of the same molecule?
**A.** The inhibition at 100 µM was 71%.

**Q.** What about the MIC (B. subtilis) of the same molecule?
**A.** The MIC was 10 µM.

**Q.** Which IC50 [2] does the source give for `COC(=O)c1cc2cc(OCc3ccccc3)ccc2n1CCCCCCCCOC(=O)c1ccc[n+](C)c1` [Compound 977] here?
**A.** The IC50 was 10 µM.

**Q.** What about the inhibition at 100 µM [2] of the same molecule?
**A.** Its inhibition at 100 µM is 87.6%.

**Q.** And the MIC (B. subtilis)?
**A.** The MIC was 10 µM.

**Q.** How did the “Minimum Toxic Dose” value [1, 12] turn out when `COC(=O)c1cc2ccccc2n1CCCCCCCCOC(=O)c1cccnc1` [Compound 949] was run?
**A.** Its value is 200 µM.

**Q.** Which results are given for `COC(=O)C=Cc1cn(CCCCCCCCC[n+]2cccc(C(=O)OC)c2)c2ccccc12` [Compound 270]?
**A.** IC50 [2]: 60 µM; inhibition of growth at 10 µM ([3]; Staphylococcus, read-out: % Inhibition, S. epidermitis, concentration screened 10 uM): 97.5%; Minimum Toxic Dose ([1]; human, 15 h): 200 µM; MIC [5]: 10 µM

**Q.** Which results are given for `C[n+]1cccc(C(=O)OCCCCCn2ccc3cc([N+](=O)[O-])ccc32)c1` [Compound 864]?
**A.** % Inhibition [2, 13]: 19.33%; % Inhibition ([3]; concentration screened 100 uM): 87.03%; ZONE OF INHIBITION [6]: 15 mm; ZONE OF INHIBITION [7]: 9.5 mm; ZONE OF INHIBITION [8]: 9.5 mm; ZONE OF INHIBITION (Bacillus subtilis A700): 19.5 mm; ZONE OF INHIBITION [9]: 10 mm; ZONE OF INHIBITION [10]: 12 mm

**Q.** With `COC(=O)c1cc2cc(OCc3ccccc3)ccc2n1CCCCCCCCOC(=O)c1cccnc1` [Compound 953] as the molecule, how does the “Minimum Toxic Dose” value [1, 12] read?
**A.** Its value is 100 µM.

**Q.** What does the source list for `COC(=O)c1cc2ccccc2n1CCCCCCCOC(=O)c1cccnc1` [Compound 948]?
**A.** % Inhibition ([2]; compound at 0.05 mM): 2.52%; Minimum Toxic Dose [1, 12]: 200 µM

**Q.** How did the IC50 [2] turn out when `COC(=O)c1cc2ccccc2n1CCCCCCCOC(=O)Cc1ccc([N+](C)(C)C)cc1` [Compound 984] was run?
**A.** Its IC50 is 20 µM.

**Q.** What about the inhibition at 50 µM [2] of the same molecule?
**A.** Its inhibition at 50 µM is 87.5%.

**Q.** What about the MIC (B. subtilis) of the same molecule?
**A.** Its MIC is 30 µM.

**Q.** Which inhibition at 100 µM [2] does the source give for `COC(=O)c1cc2cc(OCc3ccccc3)ccc2n1CCCCCCCCC[n+]1ccccc1` [Compound 230] here?
**A.** Its inhibition at 100 µM is 93.1%.

**Q.** What about the inhibition of growth at 100 µM [3, 14] of the same molecule?
**A.** Its inhibition of growth at 100 µM is 95.5%.

**Q.** What about the MIC (B. subtilis) of the same molecule?
**A.** Its MIC is 10 µM.

**Q.** And the MIC [5]?
**A.** Its MIC is 3 µM.

**Q.** Which results are given for `COC(=O)c1cc2ccccc2n1CCCCCCCCCOC(=O)Cc1ccc([N+](C)(C)C)cc1` [Compound 986]?
**A.** inhibition at 50 µM [2]: 30.8%; IC50 [2, 15]: 10 µM; MIC (B. subtilis): 10 µM

**Q.** What does the source list for `COC(=O)c1cc2cc(OCc3ccccc3)ccc2n1CCCCCCCOC(=O)Cc1ccc([N+](C)(C)C)cc1` [Compound 988]?
**A.** inhibition at 100 µM [2]: 84.3%; MIC (B. subtilis): 10 µM

**Q.** `COC(=O)c1cc2ccccc2n1CCCCCCCCOC(=O)Cc1ccc([N+](C)(C)C)cc1` [Compound 985] was tested. Which IC50 [2] did it give?
**A.** The IC50 was 15 µM.

**Q.** And the inhibition at 50 µM [2]?
**A.** The inhibition at 50 µM was 92.1%.

**Q.** What about the MIC (B. subtilis) of the same molecule?
**A.** The MIC was 10 µM.

**Q.** What does the source list for `C[n+]1cccc(C(=O)OCCCCCCCCn2ccc3cc(OCc4ccccc4)ccc32)c1` [Compound 769]?
**A.** inhibition at 100 µM [2]: 98.3%; IC50 [2, 15]: 20 µM; inhibition of growth at 100 µM [3, 14]: 95.9%; MIC (B. subtilis): 3 µM; MIC [5]: 10 µM

**Q.** What does the source list for `N` [NH3, ammonia]?
**A.** Km [4]: 2880 µM; Vmax [4]: 137 nM/s

B1: bacterial NAD synthetase enzyme (Bacillus subtilis subsp. subtilis str. 168) (protein)
chain: T1 sequence (P08164 2-272 limits assumed)
**Q.** For B1, which Km ([11]; other: 0.2 mL Assay (microtiter plate)) is on record?
**A.** The Km was 152 µM.

**Q.** And the Km [11, 16]?
**A.** The Km was 120 µM.

**Q.** What about the Vmax [11, 16] of the same molecule?
**A.** Its Vmax is 436 nM/s.
